Data: PubChem BioAssay AID2060600 (Molecular Pharmacology Branch, DTP, NCI, 2025)

Test system: 996289-038-R-J1-PDC complex spheroid viability
Assay: Anticancer human tumor 996289-038-R-J1-PDC patient-derived colon adenocarcinoma cell line growth inhibition [CLK]
Conditions: for IC50: curve of first compound; for viability, T/C: stronger effect = lower value; active = viability on the fitted dose curve at most 10% of control; inactive = the rest
How it was run: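 Multi-cell-type spheroids combined patient-derived tumor cells with HUVEC endothelial cells and human mesenchymal stem cells. Paired agents were dosed in half-log steps down from about clinical Cmax, or from 10 microM where Cmax was unknown.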

[1] = second compound 0.0316 µM, first compound 0.0316 µM
[2] = second compound 0.0316 µM, first compound 0.1 µM
[3] = second compound 0.0316 µM, first compound 0.316 µM
[4] = second compound 0.0316 µM, first compound 1 µM
[5] = second compound 0.0316 µM, first compound 3.16 µM
[6] = second compound 0.0316 µM, first compound 10 µM
[7] = second compound 0.1 µM, first compound 0.0316 µM
[8] = second compound 0.1 µM, first compound 0.1 µM
[9] = second compound 0.1 µM, first compound 0.316 µM
[10] = second compound 0.1 µM, first compound 1 µM
[11] = second compound 0.1 µM, first compound 3.16 µM
[12] = second compound 0.1 µM, first compound 10 µM
[13] = second compound 0.316 µM, first compound 0.0316 µM
[14] = second compound 0.316 µM, first compound 0.1 µM
[15] = second compound 0.316 µM, first compound 0.316 µM
[16] = second compound 0.316 µM, first compound 1 µM
[17] = second compound 0.316 µM, first compound 3.16 µM
[18] = second compound 0.316 µM, first compound 10 µM
[19] = second compound 1 µM, first compound 0.0316 µM
[20] = second compound 1 µM, first compound 0.1 µM
[21] = second compound 1 µM, first compound 0.316 µM
[22] = second compound 1 µM, first compound 1 µM
[23] = second compound 1 µM, first compound 3.16 µM
[24] = second compound 1 µM, first compound 10 µM
[25] = second compound 3.16 µM, first compound 0.0316 µM
[26] = second compound 3.16 µM, first compound 0.1 µM
[27] = second compound 3.16 µM, first compound 0.316 µM
[28] = second compound 3.16 µM, first compound 1 µM
[29] = second compound 3.16 µM, first compound 3.16 µM
[30] = second compound 3.16 µM, first compound 10 µM
[31] = second compound 10 µM, first compound 0.0316 µM
[32] = second compound 10 µM, first compound 0.1 µM
[33] = second compound 10 µM, first compound 0.316 µM
[34] = second compound 10 µM, first compound 1 µM
[35] = second compound 10 µM, first compound 3.16 µM
[36] = second compound 10 µM, first compound 10 µM
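Also: spheroids exposed to the agents for 7 days before readout.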

CC(Nc1ccc2c(c1)OCCn1cc(N3C(=O)OCC3C(F)F)nc1-2)C(N)=O (stereo not drawn) + CNC(=O)c1ccc(Nc2nc(OC3CCCC3)c3c(-c4ccc5nc(C)oc5c4)c[nH]c3n2)c(OC)c1
0.655 µM: IC50 (second compound 0.316 µM)
0.0489 µM: IC50 (second compound 3.16 µM)
inactive: viability, T/C [1] 113% | viability, T/C [2] 92.9% | viability, T/C [3] 83.4% | viability, T/C [4] 69.1% | viability, T/C [5] 60.2% | viability, T/C [6] 49.7% | viability, T/C [7] 114% | viability, T/C [8] 97.3% | viability, T/C [9] 82.1% | viability, T/C [10] 70.9% | viability, T/C [11] 61.1% | viability, T/C [12] 47.4% | viability, T/C [13] 69.1% | viability, T/C [14] 62.3% | viability, T/C [15] 53% | viability, T/C [16] 47.4% | viability, T/C [17] 42.2% | viability, T/C [18] 32.2% | viability, T/C [19] 52.9% | viability, T/C [20] 43.7% | viability, T/C [21] 38.3% | viability, T/C [22] 31.5% | viability, T/C [23] 29.2% | viability, T/C [24] 24.4% | viability, T/C [25] 53.7% | viability, T/C [26] 44.8% | viability, T/C [27] 33.1% | viability, T/C [28] 31.5% | viability, T/C [29] 25.4% | viability, T/C [30] 21.9% | viability, T/C [31] 46.7% | viability, T/C [32] 42.8% | viability, T/C [33] 31.2% | viability, T/C [34] 30.6% | viability, T/C [35] 27.1% | viability, T/C [36] 21.8%
8.75 µM: IC50 (second compound 0.1 µM)
< 0.0316 µM: IC50 (second compound 10 µM)
0.0453 µM: IC50 (second compound 1 µM)
> 10 µM: IC50 (second compound 0.0316 µM)

CC(=O)O[C@H]1C(=O)[C@@]2(C)[C@H]([C@H](OC(=O)c3ccccc3)[C@]3(O)C[C@H](OC(=O)[C@H](O)[C@@H](NC(=O)c4ccccc4)c4ccccc4)C(C)=C1C3(C)C)[C@]1(OC(C)=O)CO[C@@H]1C[C@@H]2O + CNC(=O)c1ccc(Nc2nc(OC3CCCC3)c3c(-c4ccc5nc(C)oc5c4)c[nH]c3n2)c(OC)c1
inactive: viability, T/C [1] 109% | viability, T/C [2] 103% | viability, T/C [3] 79.9% | viability, T/C [4] 70.3% | viability, T/C [5] 67.4% | viability, T/C [6] 64.6% | viability, T/C [7] 110% | viability, T/C [8] 96% | viability, T/C [9] 80% | viability, T/C [10] 79.2% | viability, T/C [11] 74.8% | viability, T/C [12] 65.4% | viability, T/C [13] 68.6% | viability, T/C [14] 70.3% | viability, T/C [15] 65.6% | viability, T/C [16] 66.3% | viability, T/C [17] 69.2% | viability, T/C [18] 73.3% | viability, T/C [19] 63.2% | viability, T/C [20] 59% | viability, T/C [21] 57.5% | viability, T/C [22] 53.5% | viability, T/C [23] 62.9% | viability, T/C [24] 61.8% | viability, T/C [25] 59.6% | viability, T/C [26] 55% | viability, T/C [27] 54% | viability, T/C [28] 54.3% | viability, T/C [29] 59% | viability, T/C [30] 65.2% | viability, T/C [31] 56.7% | viability, T/C [32] 53.5% | viability, T/C [33] 55.2% | viability, T/C [34] 53.8% | viability, T/C [35] 59.6% | viability, T/C [36] 53.7%
> 10 µM: IC50 (second compound 0.0316 µM) | IC50 (second compound 0.1 µM) | IC50 (second compound 0.316 µM) | IC50 (second compound 1 µM) | IC50 (second compound 3.16 µM) | IC50 (second compound 10 µM)

CCCS(=O)(=O)Nc1ccc(F)c(C(=O)c2c[nH]c3ncc(-c4ccc(Cl)cc4)cc23)c1F + CN1CCN(c2cc(C(=O)Nc3cc4cc(-c5cnn(C)c5)ccc4cn3)ccn2)CC1
6.17 µM: IC50 (second compound 0.316 µM)
active: viability, T/C [19] 5.57% | viability, T/C [20] 6.02% | viability, T/C [21] 6.22% | viability, T/C [22] 7.67% | viability, T/C [23] 5.81% | viability, T/C [24] 5.48% | viability, T/C [25] 1.49% | viability, T/C [26] 1.01% | viability, T/C [27] 1.22% | viability, T/C [28] 1.3% | viability, T/C [29] 2.36% | viability, T/C [30] 1.6% | viability, T/C [31] 1.91% | viability, T/C [32] 0.63% | viability, T/C [33] 1.71% | viability, T/C [34] 0.77% | viability, T/C [35] 1.81% | viability, T/C [36] 0.48%
inactive: viability, T/C [1] 92.3% | viability, T/C [2] 87.7% | viability, T/C [3] 95% | viability, T/C [4] 98% | viability, T/C [5] 98.6% | viability, T/C [6] 68.1% | viability, T/C [7] 94.2% | viability, T/C [8] 82% | viability, T/C [9] 90.1% | viability, T/C [10] 92% | viability, T/C [11] 81.3% | viability, T/C [12] 57.3% | viability, T/C [13] 67.4% | viability, T/C [14] 70.3% | viability, T/C [15] 70.9% | viability, T/C [16] 76.6% | viability, T/C [17] 65.7% | viability, T/C [18] 37.9%
< 0.0316 µM: IC50 (second compound 1 µM) | IC50 (second compound 3.16 µM) | IC50 (second compound 10 µM)
> 10 µM: IC50 (second compound 0.0316 µM) | IC50 (second compound 0.1 µM)

CC1COCCN1c1cc(C2(S(C)(=N)=O)CC2)nc(-c2ccnc3[nH]ccc23)n1 (stereo not drawn) + CN1CCN(c2cc(C(=O)Nc3cc4cc(-c5cnn(C)c5)ccc4cn3)ccn2)CC1
< 0.0316 µM: IC50 (second compound 1 µM) | IC50 (second compound 3.16 µM) | IC50 (second compound 10 µM)
> 10 µM: IC50 (second compound 0.0316 µM) | IC50 (second compound 0.1 µM) | IC50 (second compound 0.316 µM)
active: viability, T/C [19] 6.36% | viability, T/C [20] 8.03% | viability, T/C [21] 5.79% | viability, T/C [22] 5.93% | viability, T/C [23] 5.27% | viability, T/C [24] 4.07% | viability, T/C [25] 1.36% | viability, T/C [26] 1.15% | viability, T/C [27] 1.45% | viability, T/C [28] 0.91% | viability, T/C [29] 1.03% | viability, T/C [30] 2.2% | viability, T/C [31] 1.62% | viability, T/C [32] 0.34% | viability, T/C [33] 0.65% | viability, T/C [34] 0.65% | viability, T/C [35] 4.11% | viability, T/C [36] 0.52%
inactive: viability, T/C [1] 103% | viability, T/C [2] 104% | viability, T/C [3] 98.1% | viability, T/C [4] 103% | viability, T/C [5] 99.2% | viability, T/C [6] 80.8% | viability, T/C [7] 102% | viability, T/C [8] 91.3% | viability, T/C [9] 83.1% | viability, T/C [10] 91.7% | viability, T/C [11] 90.9% | viability, T/C [12] 71% | viability, T/C [13] 71.4% | viability, T/C [14] 70.1% | viability, T/C [15] 69.3% | viability, T/C [16] 62.7% | viability, T/C [17] 66% | viability, T/C [18] 49.9%
